Test results: patent publication US8394770B2 (priority 2007, dated 2013)
“And” between values parts separate entries of the source, which are not always exact repeats. Identical values can stand only once. “Also recorded” adds a separate entry of the source.

Tests used:
hIKCa1 = hIKCa1 (Homo sapiens, UniProt O15554); assay: Patch-clamp block of recombinant hIKCa1 channels expressed in Cos-7 cells (voltage ramps)
hKv1.5 = hKv1.5 (Homo sapiens, UniProt P22460); assay: Patch-clamp block of hKv1.5 channels stably expressed in MEL cells; details: 10 nM
mKv1.1 = mKv1.1 (Mus musculus, UniProt P16388); assay: Patch-clamp block of mKv1.1 channels stably expressed in L929 cells; details: for remaining current fraction (RCF) mKv1.1: n=3
mice = assay: In vivo toxicity / lethality test by injection into mice; details: injected
hKv1.2 = hKv1.2 (Homo sapiens, UniProt P16389); assay: Patch-clamp block of hKv1.2 channels expressed in Cos-7 cells; details: for remaining current fraction (RCF) hKv1.2: n=3
rKv2.1 = target: T1, rKv2.1 (Rattus norvegicus, UniProt P15387); assay: Patch-clamp block of rKv2.1 channels expressed in Cos-7 cells; details: 10 nM
T1 sequence (P15387 1-857): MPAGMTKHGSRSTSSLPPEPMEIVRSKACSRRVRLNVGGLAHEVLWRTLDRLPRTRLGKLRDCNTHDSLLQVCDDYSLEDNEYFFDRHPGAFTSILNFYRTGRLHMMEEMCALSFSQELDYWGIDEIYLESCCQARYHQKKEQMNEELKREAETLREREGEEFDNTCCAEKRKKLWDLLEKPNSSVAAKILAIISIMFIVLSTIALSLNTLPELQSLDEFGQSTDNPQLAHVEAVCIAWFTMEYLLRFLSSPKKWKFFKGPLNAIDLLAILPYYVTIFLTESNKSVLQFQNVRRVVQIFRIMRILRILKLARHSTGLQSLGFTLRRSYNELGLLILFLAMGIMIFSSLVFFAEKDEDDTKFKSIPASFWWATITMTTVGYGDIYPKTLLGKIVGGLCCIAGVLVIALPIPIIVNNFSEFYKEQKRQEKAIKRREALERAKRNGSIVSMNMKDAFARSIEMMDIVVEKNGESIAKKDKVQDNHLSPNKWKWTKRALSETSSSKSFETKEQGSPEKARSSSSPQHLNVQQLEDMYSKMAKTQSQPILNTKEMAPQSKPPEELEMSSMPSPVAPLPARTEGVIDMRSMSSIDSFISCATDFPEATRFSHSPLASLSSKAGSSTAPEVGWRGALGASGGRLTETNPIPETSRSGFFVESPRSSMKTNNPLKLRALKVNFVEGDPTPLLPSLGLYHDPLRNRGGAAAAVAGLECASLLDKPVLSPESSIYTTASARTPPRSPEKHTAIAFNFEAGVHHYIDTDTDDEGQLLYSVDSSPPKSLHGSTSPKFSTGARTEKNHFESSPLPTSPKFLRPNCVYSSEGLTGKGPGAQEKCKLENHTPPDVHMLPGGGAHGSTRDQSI

hKv1.3 channels = hKv1.3 channels (Homo sapiens, UniProt P22001); assay: Whole-cell patch-clamp block of hKv1.3 channels endogenously expressed in human peripheral blood T cells; type: cell-based; design: channels expressed endogenously in human peripheral blood T cells; endogenous in cells; host or cells: human peripheral blood T lymphocytes from healthy volunteers, PHA-stimulated
hKv1.4 = hKv1.4 (Homo sapiens, UniProt P22459); assay: Patch-clamp block of fast inactivation-removed hKv1.4 (Kv1.4ΔN) channels in Cos-7 cells; details: 10 nM
hBK (KCa1.1) = hBK (KCa1.1) (Homo sapiens, UniProt Q12791); assay: Patch-clamp block of hBK (KCa1.1) channels expressed in tsA-201 cells; details: 10 nM
hERG channel = hERG channel (Homo sapiens, UniProt Q12809); assay: Patch-clamp block of hERG channels stably expressed in HEK-293 cells; details: 10 nM
hNaV1.5 = hNaV1.5 (Homo sapiens, UniProt Q14524); assay: Patch-clamp block of cardiac voltage-gated Na+ channel NaV1.5 expressed in Cos-7 cells; details: 10 nM
rats = assay: Delayed-type hypersensitivity (DTH) response in DNFB-sensitized rats, ear thickness; type: in vivo, rat; details: single dose of 10 micrograms, 24 hours
Text: In order to perform this kind of experiment we set up a protocol to study DTH response in rats. The system used is basically that described by Phanuphak et al., 1974. In brief, two groups of rats (3 or 5 animals each) were sensitized by applications of 40 microliters of 0.7% DNFB in 4:1 proportion of acetone: olive oil solution, in two consecutive days (days one and two), after gentle shaving of the dorsal-back region of the animals. After 7 days of the second application of the sensitizing solution, the animals were challenged by a single application of 20 microliter of 0.4% DNFB dissolved in the acetone: olive oil solution described above. This solution was spread over the dorsal surface of the right-side ears and allowed to dry, whereas the left-side ears were spread with only the vehicle solution (acetone:olive oil). On day eight of the protocol, a subcutaneous injection of 100 microliter of phosphate saline buffer pH 7.8 (PBS) was applied to each one of the animals used as control, whereas to the experimental group of rats, an amount of 10 micrograms pure Vm24 in 100 microliters PBS was subcutaneously applied. The thickness of both ears of all animals was measured 24 hours after of the application of Vm24.

Sequence of hIKCa1 (O15554 whole entry): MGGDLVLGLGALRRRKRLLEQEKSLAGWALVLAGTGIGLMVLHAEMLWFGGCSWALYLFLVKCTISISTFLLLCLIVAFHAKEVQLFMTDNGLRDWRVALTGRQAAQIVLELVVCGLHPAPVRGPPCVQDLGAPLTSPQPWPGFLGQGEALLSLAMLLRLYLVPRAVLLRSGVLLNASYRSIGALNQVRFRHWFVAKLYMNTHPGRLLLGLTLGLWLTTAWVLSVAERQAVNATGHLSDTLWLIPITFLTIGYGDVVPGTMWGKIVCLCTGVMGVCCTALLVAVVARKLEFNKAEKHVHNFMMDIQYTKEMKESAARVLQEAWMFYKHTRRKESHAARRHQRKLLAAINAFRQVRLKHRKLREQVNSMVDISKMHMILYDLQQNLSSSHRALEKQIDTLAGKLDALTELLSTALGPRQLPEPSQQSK
Sequence of hKv1.2 (P16389 whole entry): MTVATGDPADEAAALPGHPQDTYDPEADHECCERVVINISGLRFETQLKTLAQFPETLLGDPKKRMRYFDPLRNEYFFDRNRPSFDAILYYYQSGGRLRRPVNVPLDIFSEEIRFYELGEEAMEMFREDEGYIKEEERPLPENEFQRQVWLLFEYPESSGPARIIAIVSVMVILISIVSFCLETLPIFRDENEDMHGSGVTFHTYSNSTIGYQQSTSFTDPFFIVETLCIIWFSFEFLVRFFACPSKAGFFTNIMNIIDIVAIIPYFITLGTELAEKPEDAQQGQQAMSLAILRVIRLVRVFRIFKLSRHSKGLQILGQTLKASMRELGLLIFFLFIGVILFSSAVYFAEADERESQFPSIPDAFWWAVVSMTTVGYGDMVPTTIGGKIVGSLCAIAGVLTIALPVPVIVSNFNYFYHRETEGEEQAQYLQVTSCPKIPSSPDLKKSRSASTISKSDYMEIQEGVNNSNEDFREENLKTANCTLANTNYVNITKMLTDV
Sequence of hKv1.3 channels (P22001 whole entry): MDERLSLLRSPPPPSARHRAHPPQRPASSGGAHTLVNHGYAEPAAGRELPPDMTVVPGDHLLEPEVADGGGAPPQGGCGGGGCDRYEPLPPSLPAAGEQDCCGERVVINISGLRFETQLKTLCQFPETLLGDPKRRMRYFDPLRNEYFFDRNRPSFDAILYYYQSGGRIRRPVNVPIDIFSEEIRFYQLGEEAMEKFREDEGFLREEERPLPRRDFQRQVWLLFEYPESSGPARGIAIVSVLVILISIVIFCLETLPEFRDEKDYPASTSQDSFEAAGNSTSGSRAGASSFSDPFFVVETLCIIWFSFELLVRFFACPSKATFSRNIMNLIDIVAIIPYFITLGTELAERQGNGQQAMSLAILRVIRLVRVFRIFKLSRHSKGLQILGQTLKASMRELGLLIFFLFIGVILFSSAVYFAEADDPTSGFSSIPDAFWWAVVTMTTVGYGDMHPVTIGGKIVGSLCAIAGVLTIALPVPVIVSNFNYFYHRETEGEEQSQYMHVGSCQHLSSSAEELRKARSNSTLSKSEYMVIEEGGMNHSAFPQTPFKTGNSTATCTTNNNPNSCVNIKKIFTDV
Sequence of mKv1.1 (P16388 whole entry): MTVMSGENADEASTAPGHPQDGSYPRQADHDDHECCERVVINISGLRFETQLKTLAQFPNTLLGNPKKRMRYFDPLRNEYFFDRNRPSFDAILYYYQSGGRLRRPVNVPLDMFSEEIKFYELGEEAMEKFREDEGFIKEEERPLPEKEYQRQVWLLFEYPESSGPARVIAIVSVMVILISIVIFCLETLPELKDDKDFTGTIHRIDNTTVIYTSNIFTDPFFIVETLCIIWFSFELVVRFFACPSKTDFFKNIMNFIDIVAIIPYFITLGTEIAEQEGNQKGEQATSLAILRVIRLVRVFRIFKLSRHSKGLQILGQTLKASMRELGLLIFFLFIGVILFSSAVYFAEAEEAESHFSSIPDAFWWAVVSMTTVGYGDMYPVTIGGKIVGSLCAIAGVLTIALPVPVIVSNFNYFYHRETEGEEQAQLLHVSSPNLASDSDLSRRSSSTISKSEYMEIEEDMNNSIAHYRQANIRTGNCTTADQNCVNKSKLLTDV
Sequence of hKv1.5 (P22460 whole entry): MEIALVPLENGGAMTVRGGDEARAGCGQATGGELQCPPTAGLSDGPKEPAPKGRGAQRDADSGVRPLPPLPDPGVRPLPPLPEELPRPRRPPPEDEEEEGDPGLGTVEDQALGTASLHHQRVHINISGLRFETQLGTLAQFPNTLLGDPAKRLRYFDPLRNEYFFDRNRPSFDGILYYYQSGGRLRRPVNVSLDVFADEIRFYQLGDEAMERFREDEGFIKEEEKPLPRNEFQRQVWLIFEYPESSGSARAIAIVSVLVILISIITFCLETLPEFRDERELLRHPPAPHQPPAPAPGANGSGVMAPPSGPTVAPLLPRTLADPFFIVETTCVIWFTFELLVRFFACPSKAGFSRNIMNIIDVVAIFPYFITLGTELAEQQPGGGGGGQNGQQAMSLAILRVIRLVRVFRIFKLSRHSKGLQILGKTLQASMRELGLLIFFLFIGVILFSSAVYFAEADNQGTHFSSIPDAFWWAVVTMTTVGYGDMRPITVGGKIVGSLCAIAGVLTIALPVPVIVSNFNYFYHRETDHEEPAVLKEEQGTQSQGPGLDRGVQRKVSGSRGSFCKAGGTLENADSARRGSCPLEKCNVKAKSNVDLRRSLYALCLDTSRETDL
Sequence of hKv1.4 (P22459 148-653): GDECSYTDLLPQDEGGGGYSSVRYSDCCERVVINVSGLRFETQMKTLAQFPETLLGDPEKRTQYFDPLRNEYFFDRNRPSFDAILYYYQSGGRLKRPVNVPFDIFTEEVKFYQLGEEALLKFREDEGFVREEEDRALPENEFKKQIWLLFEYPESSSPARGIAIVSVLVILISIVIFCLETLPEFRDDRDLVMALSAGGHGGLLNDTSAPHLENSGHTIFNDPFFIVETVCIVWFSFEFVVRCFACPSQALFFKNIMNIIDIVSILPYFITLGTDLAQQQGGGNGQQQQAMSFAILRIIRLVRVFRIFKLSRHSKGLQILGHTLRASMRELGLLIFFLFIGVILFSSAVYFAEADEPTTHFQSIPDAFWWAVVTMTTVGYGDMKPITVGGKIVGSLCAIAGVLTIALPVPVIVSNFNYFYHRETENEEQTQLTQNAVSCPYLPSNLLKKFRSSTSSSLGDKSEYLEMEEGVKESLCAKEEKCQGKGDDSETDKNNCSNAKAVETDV
Sequence of hBK (KCa1.1) (Q12791 1-1178 isoform Q12791-5): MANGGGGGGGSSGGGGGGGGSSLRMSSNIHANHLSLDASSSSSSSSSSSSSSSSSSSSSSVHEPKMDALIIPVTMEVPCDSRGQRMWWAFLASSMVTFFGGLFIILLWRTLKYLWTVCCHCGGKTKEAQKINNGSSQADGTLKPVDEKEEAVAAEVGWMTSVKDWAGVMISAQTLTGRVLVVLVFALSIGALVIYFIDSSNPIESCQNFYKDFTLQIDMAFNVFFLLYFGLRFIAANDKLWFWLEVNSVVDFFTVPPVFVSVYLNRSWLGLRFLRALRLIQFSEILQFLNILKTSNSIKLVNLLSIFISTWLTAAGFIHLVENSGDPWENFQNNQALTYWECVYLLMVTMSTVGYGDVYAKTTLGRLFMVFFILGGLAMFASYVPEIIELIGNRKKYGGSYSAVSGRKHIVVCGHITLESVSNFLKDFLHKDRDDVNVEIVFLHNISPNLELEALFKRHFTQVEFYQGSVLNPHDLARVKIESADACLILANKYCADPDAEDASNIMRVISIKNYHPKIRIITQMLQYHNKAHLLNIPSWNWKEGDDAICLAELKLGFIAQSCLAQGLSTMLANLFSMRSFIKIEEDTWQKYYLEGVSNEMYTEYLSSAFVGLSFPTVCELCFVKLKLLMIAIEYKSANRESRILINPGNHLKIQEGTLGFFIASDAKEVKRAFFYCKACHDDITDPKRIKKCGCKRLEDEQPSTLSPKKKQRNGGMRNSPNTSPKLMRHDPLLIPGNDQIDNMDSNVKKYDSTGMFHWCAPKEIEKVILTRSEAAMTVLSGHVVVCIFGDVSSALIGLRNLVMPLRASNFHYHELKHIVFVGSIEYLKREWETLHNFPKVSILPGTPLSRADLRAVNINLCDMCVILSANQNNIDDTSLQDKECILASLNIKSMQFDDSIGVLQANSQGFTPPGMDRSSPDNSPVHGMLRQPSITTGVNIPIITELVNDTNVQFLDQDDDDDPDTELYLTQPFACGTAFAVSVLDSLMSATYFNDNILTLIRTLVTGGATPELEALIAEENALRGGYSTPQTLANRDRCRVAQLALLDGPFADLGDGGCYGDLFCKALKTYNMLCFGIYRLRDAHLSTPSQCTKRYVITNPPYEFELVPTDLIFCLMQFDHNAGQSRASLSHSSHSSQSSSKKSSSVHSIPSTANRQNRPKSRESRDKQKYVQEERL

Structure (SMILES): CC[C@H](C)[C@H](NC(=O)[C@H](C)NC(=O)[C@H](C)NC(=O)[C@H](C)N)C(=O)N[C@@H](CO)C(=O)N[C@H]1CSSC[C@@H]2NC(=O)[C@H](CCCCN)NC(=O)CNC(=O)[C@H](CC(N)=O)NC(=O)[C@H](CCCCN)NC(=O)[C@@H]3CSSC[C@@H](C(N)=O)NC(=O)[C@H](Cc4ccc(O)cc4)NC(=O)[C@H](Cc4ccc(O)cc4)NC(=O)[C@@H]4CSSC[C@H](NC(=O)[C@H](CCCCN)NC(=O)[C@@H]5CCCN5C(=O)[C@@H]5CCCN5C(=O)[C@H](CSSC[C@H](NC(=O)[C@H](CCCCN)NC(=O)[C@H](CCCNC(=N)N)NC(=O)[C@H](CC(N)=O)NC(=O)[C@H](CCSC)NC2=O)C(=O)N[C@@H](CCCCN)C(=O)N4)NC(=O)[C@H](CCC(=O)O)NC(=O)[C@@H]2CCCN2C(=O)[C@H](CO)NC(=O)CNC(=O)[C@H](C(C)C)NC1=O)C(=O)N[C@@H](CCCNC(=N)N)C(=O)N[C@@H](C)C(=O)N[C@@H](CCC(N)=O)C(=O)NCC(=O)N3 [Vm24]
- Kd (hIKCa1): ~14 nM
- selectivity for hKv1.3 over hIKCa1 (hIKCa1): ≥ 4500 fold
- block of hIKCa1 (hIKCa1; 1 nM): practically does not blocks
- time to reach equilibrium block of hIKCa1 (hIKCa1; 10 nM): 4.5 min
- inhibition at 0.01 µM (hIKCa1; COS-7, read-out: current inhibition hIKCa1, 10 nM): ~40%
- remaining activity at 0.01 µM (hIKCa1; COS-7, read-out: slope s of current-voltage relationship, % of control): ~52%
- reversal of hIKCa1 block on wash-out (hIKCa1; after 10 nM, in 2.5 min toxin-free solution): fully reversed
- effect on hKv1.5 current (hKv1.5): practically insensitive; also recorded: does not modify
- Kd (mKv1.1): 30 to 40 nM
- selectivity for hKv1.3 over mKv1.1 (mKv1.1): ≥ 10000 fold
- remaining current fraction (RCF) mKv1.1 (mKv1.1; 1 nM): 0.97±0.02
- time for equilibrium block of mKv1.1 to develop (mKv1.1; 10 nM): 6 min
- remaining current fraction (RCF) mKv1.1 (mKv1.1; 10 nM): 0.80±0.02
- inhibition at 0.01 µM (mKv1.1; L929, read-out: current inhibition mKv1.1): 20 to 50%
- toxicity / symptoms of intoxication in mice (mice; up to 200 microgram per mouse of 20 grams (10,000 microgram/kilogram)): not toxic; also recorded: no observable symptoms of intoxication
- toxicity in experimental animals (mice; up to 10,000 microgram per 20 gram mouse weight (so in the source)): not toxic
- Kd (hKv1.2): 5 to 10 nM
- selectivity for hKv1.3 over hKv1.2 (hKv1.2): ≥ 1500 fold
- remaining current fraction (RCF) hKv1.2 (hKv1.2; 1 nM): 0.81±0.015
- time for equilibrium block of hKv1.2 to develop (hKv1.2; 10 nM): 5.5 min
- remaining current fraction (RCF) hKv1.2 (hKv1.2; 10 nM): 0.54±0.08
- reversibility of hKv1.2 block (hKv1.2; after 10 nM, wash-out): not fully reversible
- effect on rKv2.1 current (rKv2.1): lack of blockade; also recorded: does not modify
- block of hKv1.3 current (hKv1.3 channels; 3 pM): over 50%
- level at which loss of current saturates, % of the peak recorded in control solution (hKv1.3 channels; 3 pM, 10.5-minute application): ~36%
- block of hKv1.3 current (words) (hKv1.3 channels; 0.3 nM): full block
- block of hKv1.3 current (words) (hKv1.3 channels; 1 nM): completely disappeared; also recorded: full block; also recorded: blocks hKv1.3 channels completely; also recorded: almost completely blocked
- blockage of hKv1.3 current (hKv1.3 channels; 10 nM): 100%
- time for equilibrium block of hKv1.3 to develop (hKv1.3 channels; 10 nM): 3.5 min
- remaining current fraction (RCF) hKv1.3 (hKv1.3 channels; 10 nM, mean±SEM, n=3): 0.01±0.01
- fraction of blocked hKv1.3 current recovered (hKv1.3 channels; 30 minute washout after 3 pM): one third
- Hill coefficient n (hKv1.3 channels; dose-response fit, hKv1.3): ~1
- Kd (hKv1.3 channels; fit of dose-response of remaining current fraction, human T cells, stated to be an overestimate of the real Kd, read-out: Kd (dissociation constant) for hKv1.3): 0.0029 nM and < 0.003 nM
- off rate (hKv1.3 channels; from wash-out time constant after 3 pM): ~0.00026 s⁻¹
- effect on hKv1.4 current (hKv1.4): practically insensitive; also recorded: does not modify
- effect on hBK current (hBK (KCa1.1)): lack of blockade; also recorded: does not modify
- effect on hERG current (hERG channel): lack of blockade; also recorded: does not modify
- effect on NaV1.5 current (hNaV1.5): lack of blockade; also recorded: does not modify
- inflammation of the ear (thickness, unchallenged ear subtracted) (rats): no more than 0.10 mm
